Assay results reported in US8653263B2 (Janssen Pharmaceutica, priority 2009, dated 2014).

Target: human orexin-2 receptor (Homo sapiens (Human), UniProt O43614)
Assay: Human orexin 2 receptor radioligand binding ([3H]-EMPA competition)
Conditions: HEK293 cells stably expressing human orexin-2 receptor; [3H]-EMPA 5 nM final; apparent Ki=IC50/(1+C/Kd), Kd=2 nM; read-out: OR 2 Ki

Sequence of human orexin-2 receptor (O43614 whole entry): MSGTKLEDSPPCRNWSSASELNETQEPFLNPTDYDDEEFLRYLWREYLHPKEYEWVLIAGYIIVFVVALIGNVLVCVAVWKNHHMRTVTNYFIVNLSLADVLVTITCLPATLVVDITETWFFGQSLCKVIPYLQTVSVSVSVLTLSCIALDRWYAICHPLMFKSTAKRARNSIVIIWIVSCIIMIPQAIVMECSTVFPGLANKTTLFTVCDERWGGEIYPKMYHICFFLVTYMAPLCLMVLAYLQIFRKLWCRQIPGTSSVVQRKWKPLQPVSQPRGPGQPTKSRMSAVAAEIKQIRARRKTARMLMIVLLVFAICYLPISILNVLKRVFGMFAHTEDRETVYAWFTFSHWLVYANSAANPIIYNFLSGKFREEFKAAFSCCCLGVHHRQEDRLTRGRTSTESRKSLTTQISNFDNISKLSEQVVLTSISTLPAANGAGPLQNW

Row | Structure (SMILES) | Ki [nM]
1 | COc1ccnc(N2CC3CN(C(=O)c4ccccc4-c4ccccc4)CC3C2)n1 (stereo not shown) [Example 177, 2-(Biphenyl-2-ylcarbonyl)-5-(4-methoxypyrimidin-2-yl)octahydropyrrolo[3,4-c]pyrrole] | 339
2 | Cc1cc(N2CC3CN(C(=O)c4ccccc4-c4ccccc4)CC3C2)nc2ccccc12 (stereo not shown) [Example 178, 2-[5-(Biphenyl-2-ylcarbonyl)hexahydropyrrolo[3,4-c]pyrrol-2(1H)-yl]-4-methylquinoline] | 123
3 | COc1ccc(C(=O)N2CC3CN(c4nccc(OC)n4)CC3C2)c(OC)c1 (stereo not shown) [Example 179, (2,4-Dimethoxy-phenyl)-[5-(4-methoxy-pyrimidin-2-yl)-hexahydro-pyrrolo[3,4-c]pyrrol-2-yl]-methanone] | 9000
4 | COc1ccccc1C(=O)N1CC2CN(c3nc4ccccc4o3)CC2C1 (stereo not shown) [Example 180, (5-Benzooxazol-2-yl-hexahydro-pyrrolo[3,4-c]pyrrol-2-yl)-(2-methoxy-phenyl)-methanone] | 2300
5 | O=C(c1ccccc1-c1cccnc1)N1CC2CN(c3cnc4ccccc4n3)CC2C1 (stereo not shown) [Example 181, (2-Pyridin-3-yl-phenyl)-(5-quinoxalin-2-yl-hexahydro-pyrrolo[3,4-c]pyrrol-2-yl)-methanone] | 3560
6 | Cc1cc(C)nc(N2CC3CN(C(=O)c4ccccc4-c4ncc[nH]4)CC3C2)n1 (stereo not shown) [Example 182, [5-(4,6-Dimethyl-pyrimidin-2-yl)-hexahydro-pyrrolo[3,4-c]pyrrol-2-yl]-[2-(1H-imidazol-2-yl)-phenyl]-methanone] | 2200
7 | COc1ccc(C(=O)N2CC3CN(c4nc5ccccc5o4)CC3C2)c(OC)c1 (stereo not shown) [Example 183, (5-Benzooxazol-2-yl-hexahydro-pyrrolo[3,4-c]pyrrol-2-yl)-(2,4-dimethoxy-phenyl)-methanone] | 5000
8 | O=C(c1ccccc1-c1ccccc1)N1CC2CN(c3nc4ccccc4o3)CC2C1 (stereo not shown) [Example 184, (5-Benzooxazol-2-yl-hexahydro-pyrrolo[3,4-c]pyrrol-2-yl)-biphenyl-2-yl-methanone] | 1040
9 | COc1ccc(C(=O)N2CC3CN(c4cccc(C)n4)CC3C2)c(OC)c1 (stereo not shown) [Example 185, (2,4-Dimethoxy-phenyl)-[5-(6-methyl-pyridin-2-yl)-hexahydro-pyrrolo[3,4-c]pyrrol-2-yl]-methanone] | 9000
10 | COc1ccc(C(=O)N2CC3CN(c4nccc(C)n4)CC3C2)c(OC)c1 (stereo not shown) [Example 186, (2,4-Dimethoxy-phenyl)-[5-(4-methyl-pyrimidin-2-yl)-hexahydro-pyrrolo[3,4-c]pyrrol-2-yl]-methanone] | 10000
11 | COc1ccc2nc(N3CC4CN(C(=O)c5ccccc5-c5ccccc5)CC4C3)sc2c1 (stereo not shown) [Example 187, Biphenyl-2-yl-[5-(6-methoxy-benzothiazol-2-yl)-hexahydro-pyrrolo[3,4-c]pyrrol-2-yl]-methanone] | 2280
12 | Cc1ccc2nc(N3CC4CN(C(=O)c5ccccc5-c5ccccc5)CC4C3)sc2c1 (stereo not shown) [Example 188, Biphenyl-2-yl-[5-(6-methyl-benzothiazol-2-yl)-hexahydro-pyrrolo[3,4-c]pyrrol-2-yl]-methanone] | 2610
13 | COc1cccc(OC)c1C(=O)N1CC2CN(c3nc4ccc(Cl)cc4s3)CC2C1 (stereo not shown) [Example 189, [5-(6-Chloro-benzothiazol-2-yl)-hexahydro-pyrrolo[3,4-c]pyrrol-2-yl]-(2,6-dimethoxy-phenyl)-methanone] | 1600
14 | O=C(c1ccccc1-c1ccccc1)N1CC2CN(c3nc4ccc(Cl)cc4s3)CC2C1 (stereo not shown) [Example 190, Biphenyl-2-yl-[5-(6-chloro-benzothiazol-2-yl)-hexahydro-pyrrolo[3,4-c]pyrrol-2-yl]-methanone] | 1300
15 | COc1ccc(C(=O)N2CC3CN(c4cnc5ccccc5n4)CC3C2)c(OC)c1 (stereo not shown) [Example 191, (2,4-Dimethoxy-phenyl)-(5-quinoxalin-2-yl-hexahydro-pyrrolo[3,4-c]pyrrol-2-yl)-methanone] | 2660
16 | COc1cccc(OC)c1C(=O)N1CC2CN(c3nc4ccccc4o3)CC2C1 (stereo not shown) [Example 192, (5-Benzooxazol-2-yl-hexahydro-pyrrolo[3,4-c]pyrrol-2-yl)-(2,6-dimethoxy-phenyl)-methanone] | 1020
17 | Cc1ccc(-c2ccccc2C(=O)N2CC3CN(c4cnc5ccccc5n4)CC3C2)cc1 (stereo not shown) [Example 193, (4′-Methyl-biphenyl-2-yl)-(5-quinoxalin-2-yl-hexahydro-pyrrolo[3,4-c]pyrrol-2-yl)-methanone] | 1160
18 | O=C(c1ccccc1-c1ccc(C(F)(F)F)cc1)N1CC2CN(c3cnc4ccccc4n3)CC2C1 (stereo not shown) [Example 194, (5-Quinoxalin-2-yl-hexahydro-pyrrolo[3,4-c]pyrrol-2-yl)-(4′-trifluoromethyl-biphenyl-2-yl)-methanone] | 10000
19 | Cc1ccc(-c2ccccc2C(=O)N2CC3CN(c4nccc(-c5ccccc5)n4)CC3C2)cc1 (stereo not shown) [Example 195, (4′-Methyl-biphenyl-2-yl)-[5-(4-phenyl-pyrimidin-2-yl)-hexahydro-pyrrolo[3,4-c]pyrrol-2-yl]-methanone] | 1100

Row | Structure (SMILES) | Ki [nM]
20 | O=C(c1ccccc1-c1ccc(C(F)(F)F)cc1)N1CC2CN(c3nccc(-c4ccccc4)n3)CC2C1 (stereo not shown) [Example 196, [5-(4-Phenyl-pyrimidin-2-yl)-hexahydro-pyrrolo[3,4-c]pyrrol-2-yl]-(4′-trifluoromethyl-biphenyl-2-yl)-methanone] | 10000
21 | COc1ccc(C(=O)N2CC3CN(c4cnc5ccccc5n4)CC3C2)c(C)c1 (stereo not shown) [Example 197, (4-Methoxy-2-methyl-phenyl)-(5-quinoxalin-2-yl-hexahydro-pyrrolo[3,4-c]pyrrol-2-yl)-methanone] | 1160
22 | O=C(c1ccccc1-c1cccc(Cl)c1)N1CC2CN(c3nccc(-c4ccccc4)n3)CC2C1 (stereo not shown) [Example 198, (3′-Chloro-biphenyl-2-yl)-[5-(4-phenyl-pyrimidin-2-yl)-hexahydro-pyrrolo[3,4-c]pyrrol-2-yl]-methanone] | 1310
23 | COc1ccnc(N2CC3CN(C(=O)c4ccccc4OC)CC3C2)n1 (stereo not shown) [Example 199, (2-Methoxy-phenyl)-[5-(4-methoxy-pyrimidin-2-yl)-hexahydro-pyrrolo[3,4-c]pyrrol-2-yl]-methanone] | 3780
24 | COc1ccccc1C(=O)N1CC2CN(c3nc(C)cc(C)n3)CC2C1 (stereo not shown) [Example 201, [5-(4,6-Dimethyl-pyrimidin-2-yl)-hexahydro-pyrrolo[3,4-c]pyrrol-2-yl]-(2-methoxy-phenyl)-methanone] | 1370
25 | Cc1cc(C)nc(N2CC3CN(C(=O)c4ccccc4C#N)CC3C2)n1 (stereo not shown) [Example 202, 2-[5-(4,6-Dimethyl-pyrimidin-2-yl)-hexahydro-pyrrolo[3,4-c]pyrrole-2-carbonyl]-benzonitrile] | 5000
26 | Cc1cc(C)nc(N2CC3CN(C(=O)c4cnnc5ccccc45)CC3C2)n1 (stereo not shown) [Example 203, Cinnolin-4-yl-[5-(4,6-dimethyl-pyrimidin-2-yl)-hexahydro-pyrrolo[3,4-c]pyrrol-2-yl]-methanone] | 5000
27 | Cc1cc(N2CC3CN(C(=O)c4cc(F)ccc4-c4ncccn4)CC3C2)nc(C(F)(F)F)n1 (stereo not shown) [Example 204, (5-Fluoro-2-pyrimidin-2-yl-phenyl)-[5-(6-methyl-2-trifluoromethyl-pyrimidin-4-yl)-hexahydro-pyrrolo[3,4-c]pyrrol-2-yl]-methanone] | 50
28 | Cc1cc(C)nc(N2CC3CN(C(=O)c4ccccc4-n4ccnn4)CC3C2)n1 (stereo not shown) [Example 205, [5-(4,6-Dimethyl-pyrimidin-2-yl)-hexahydro-pyrrolo[3,4-c]pyrrol-2-yl]-(2-[1,2,3]triazol-1-yl-phenyl)-methanone] | 3190
29 | COc1cc(OC)nc(N2CC3CN(C(=O)c4ncccc4-c4ccccc4)CC3C2)n1 (stereo not shown) [Example 207, [5-(4,6-Dimethoxy-pyrimidin-2-yl)-hexahydro-pyrrolo[3,4-c]pyrrol-2-yl]-(3-phenyl-pyridin-2-yl)-methanone] | 9000
30 | Cc1cc(C)nc(N2CC3CN(C(=O)c4ncccc4-c4ccccc4)CC3C2)n1 (stereo not shown) [Example 208, [5-(4,6-Dimethyl-pyrimidin-2-yl)-hexahydro-pyrrolo[3,4-c]pyrrol-2-yl]-(3-phenyl-pyridin-2-yl)-methanone] | 2100
31 | CCCc1nc(C)cc(N2CC3CN(C(=O)c4ccccc4-n4nccn4)CC3C2)n1 (stereo not shown) [Example 209, [5-(6-Methyl-2-propyl-pyrimidin-4-yl)-hexahydro-pyrrolo[3,4-c]pyrrol-2-yl]-(2-[1,2,3]triazol-2-yl-phenyl)-methanone] | 9000
32 | Cc1nccc(N2CC3CN(C(=O)c4ccccc4-n4nccn4)CC3C2)n1 (stereo not shown) [Example 210, [5-(2-Methyl-pyrimidin-4-yl)-hexahydro-pyrrolo[3,4-c]pyrrol-2-yl]-(2-[1,2,3]triazol-2-yl-phenyl)-methanone] | 3000
33 | Cc1cncc(N2CC3CN(C(=O)c4ccccc4-n4nccn4)CC3C2)n1 (stereo not shown) [Example 211, [5-(6-Methyl-pyrazin-2-yl)-hexahydro-pyrrolo[3,4-c]pyrrol-2-yl]-(2-[1,2,3]triazol-2-yl-phenyl)-methanone] | 44
34 | Cc1cnc(C)c(N2CC3CN(C(=O)c4cc(F)ccc4-c4ncccn4)CC3C2)n1 (stereo not shown) [Example 212, [5-(3,6-Dimethyl-pyrazin-2-yl)-hexahydro-pyrrolo[3,4-c]pyrrol-2-yl]-(5-fluoro-2-pyrimidin-2-yl-phenyl)-methanone] | 33
35 | Cc1cnc(C)c(N2CC3CN(C(=O)c4ccccc4-c4ncn[nH]4)CC3C2)n1 (stereo not shown) [Example 213, [5-(3,6-Dimethyl-pyrazin-2-yl)-hexahydro-pyrrolo[3,4-c]pyrrol-2-yl]-[2-(2H-[1,2,4]triazol-3-yl)-phenyl]-methanone] | 56
36 | O=C(c1ccccc1-n1nccn1)N1CC2CN(c3cc(C(F)(F)F)nc(N4CCCC4)n3)CC2C1 (stereo not shown) [Example 214, [5-(2-Pyrrolidin-1-yl-6-trifluoromethyl-pyrimidin-4-yl)-hexahydro-pyrrolo[3,4-c]pyrrol-2-yl]-(2-[1,2,3]triazol-2-yl-phenyl)-methanone] | 1230
37 | Cc1cc(C)nc(N2CC3CN(C(=O)c4cccc(C)c4C)CC3C2)n1 (stereo not shown) [Example 219, 2-[(2,3-Dimethylphenyl)carbonyl]-5-(4,6-dimethylpyrimidin-2-yl)octahydropyrrolo[3,4-c]pyrrole] | 404
